The target of one assay is MT1 (ML1A) (Homo sapiens, UniProt P48039). In words: MT1 receptor binding. To be noted: [^125I]2-iodomelatonin, Human recombinant CHO cells, read-out: CR6086 Activity at 10µM.
Another assay concerns IL-23 release. In words: IL-23 release from human dendritic cells. It is filed as cell-based. To be noted: Dendritic cell, PGE2-stimulated, 24 h. As for the experimental part:
PBMCs were purified using Histopaque (Sigma-Aldrich, St. Louis, MO, USA). CD14^+ cells were positively selected in a magnetic field (magnetic-activated cell sorting [MACS]; Miltenyi Biotec, Bergisch Gladbach, Germany). Purified CD14^+ cells were subsequently cultured for 7 days in differentiation medium (RPMI 1640 + 10% FBS, granulocyte-macrophage colony-stimulating factor 50 ng/ml and IL-4 100 ng/ml) and then stimulated with LPS (10 ng/ml), R848 2.5 μg/ml and PGE2 10 nM for 24 h in the presence of CR6086 (0.01–30 μM) or naproxen (1–30 μM). IL-23 release was measured by enzyme-linked immunosorbent assay (ELISA) (R&D Systems, Minneapolis, MN, USA).

The next assay relates to VEGF gene expression. Kind of assay: VEGF gene expression in THP-1 cells differentiated to macrophages. It is filed as cell-based. The settings on record: Homo sapiens, LPS 10 ng/ml + PGE2 10 nM, read-out: IC50 transcription of VEGF. As for the experimental part: The human monocyte cell line THP-1 was obtained from the ATCC and was grown according to the instructions provided. THP-1 monocytic cells were differentiated to macrophages with 100 nM phorbol 12-myristate 13-acetate (PMA) for 4 days. Macrophages were then stimulated with lipopolysaccharide (LPS) 10 ng/ml and PGE2 10 nM for 3 or 24 h. Total RNA was purified using the ABI Prism 6100 Nucleic Acid PrepStation (Applied Biosystems, Foster City, CA, USA) and retrotranscribed using the High-Capacity cDNA Reverse Transcription Kit (Thermo Fisher Scientific). RT-PCR analysis was performed using the Applied Biosystems 7500 Fast Real-Time PCR System using specific TaqMan assays (number Hs00174131_m1 for IL-6, number Hs00900054_m1 for vascular endothelial growth factor A [VEGFA]; Thermo Fisher Scientific) and, as an endogenous control, the 18S Pre-Developed TaqMan® Assay (Thermo Fisher Scientific). The data analysis, with normalisation on 18S amplified values, was done following Thermo Fisher Scientific’s specific instructions for gene expression relative quantification. All individual data are the result of at least three different analyses for each sample.

The target in another assay is FP (Homo sapiens, UniProt P43088). In words: Eicosanoid receptor FP binding. To be noted: [^3H]PGF2α, HEK-293 cells, read-out: CR6086 Activity at 10µM.
The target in the next assay is BZD (peripheral) (Rattus norvegicus, UniProt P16257). In words: Benzodiazepine receptor (peripheral) binding. The settings on record: [^3H]PK 11195, Rat heart, read-out: CR6086 Activity at 10µM.
A further assay addresses 5-HT5a (Homo sapiens, UniProt P47898). In words: Serotonin receptor 5-HT5a binding. The settings on record: [^3H]LSD, Human recombinant HEK-293 cells, read-out: CR6086 Activity at 10µM.
The target of a further assay is DP1 (Homo sapiens, UniProt Q13258). Kind of assay: Eicosanoid receptor DP1 functional assay. The settings on record: CHO cells. It is filed as cell-based.
A further assay addresses CXCR2 (IL-8B) (Homo sapiens, UniProt P25025). Kind of assay: CXCR2 receptor binding. To be noted: [^125I]IL-8, Human recombinant HEK-293 cells, read-out: CR6086 Activity at 10µM.
A further assay addresses M4 (Homo sapiens, UniProt P08173). Kind of assay: Muscarinic acetylcholine receptor M4 binding. The settings on record: [^3H]4-DAMP, Human recombinant CHO cells, read-out: CR6086 Activity at 10µM.
In the next assay the target is GR (Homo sapiens, UniProt P04150). In words: Nuclear receptor GR binding. The settings on record: [^3H]dexamethasone, IM-9 cells (cytosol), read-out: CR6086 Activity at 10µM.
The target of a further assay is 5-HT2B (Homo sapiens, UniProt P41595). In words: Serotonin receptor 5-HT2B binding. To be noted: [^125I](±)DOI, Human recombinant CHO cells, read-out: CR6086 Activity at 10µM.
The target in another assay is NK1 (Homo sapiens, UniProt P25103). Kind of assay: Neurokinin receptor NK1 binding. The settings on record: [^125I]BH-SP, U-373MG cells (endogenous), read-out: CR6086 Activity at 10µM.
The next assay concerns the target CCR1 (Homo sapiens, UniProt P32246). Kind of assay: CCR1 receptor binding. To be noted: [^125I]MIP-1α, Human recombinant HEK-293 cells, read-out: CR6086 Activity at 10µM.
Another assay has as its target T1, COX-1 (Homo sapiens, UniProt P23219).
T1 construct: host or cells: Sf9 cells
Kind of assay: Cyclooxygenase COX-1 enzymatic activity. It is filed as biochemical. To be noted: Sf9 cells, read-out: CR6086 Activity at 10µM.

Assay [1] addresses Norepinephrine transporter (Homo sapiens, UniProt P23975). Kind of assay: Norepinephrine transporter binding. To be noted: [^3H]nisoxetine, Human recombinant CHO cells, read-out: CR6086 Activity at 10µM.

We go through 1 molecule from article PMC5831858, “Pharmacological characterisation of CR6086, a potent prostaglandin E2 receptor 4 antagonist, as a new potential disease-modifying anti-rheumatic drug” (Arthritis Research & Therapy, 2018).

For orientation: IC50 means the point on the concentration scale where inhibition reaches its midpoint.

Where only a bound is given, the exact number is not on record here.

DP1, sequence (Q13258 whole entry): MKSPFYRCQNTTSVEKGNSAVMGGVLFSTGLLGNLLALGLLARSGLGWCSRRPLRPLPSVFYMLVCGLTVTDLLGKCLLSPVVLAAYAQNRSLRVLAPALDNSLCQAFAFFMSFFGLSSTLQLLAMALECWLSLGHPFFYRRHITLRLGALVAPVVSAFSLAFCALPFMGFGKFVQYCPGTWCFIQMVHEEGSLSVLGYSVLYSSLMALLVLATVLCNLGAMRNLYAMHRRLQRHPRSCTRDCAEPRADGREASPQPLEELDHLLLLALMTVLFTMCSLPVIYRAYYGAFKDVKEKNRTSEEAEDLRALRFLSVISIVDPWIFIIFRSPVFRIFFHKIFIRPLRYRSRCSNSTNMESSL
GR, sequence (P04150 whole entry): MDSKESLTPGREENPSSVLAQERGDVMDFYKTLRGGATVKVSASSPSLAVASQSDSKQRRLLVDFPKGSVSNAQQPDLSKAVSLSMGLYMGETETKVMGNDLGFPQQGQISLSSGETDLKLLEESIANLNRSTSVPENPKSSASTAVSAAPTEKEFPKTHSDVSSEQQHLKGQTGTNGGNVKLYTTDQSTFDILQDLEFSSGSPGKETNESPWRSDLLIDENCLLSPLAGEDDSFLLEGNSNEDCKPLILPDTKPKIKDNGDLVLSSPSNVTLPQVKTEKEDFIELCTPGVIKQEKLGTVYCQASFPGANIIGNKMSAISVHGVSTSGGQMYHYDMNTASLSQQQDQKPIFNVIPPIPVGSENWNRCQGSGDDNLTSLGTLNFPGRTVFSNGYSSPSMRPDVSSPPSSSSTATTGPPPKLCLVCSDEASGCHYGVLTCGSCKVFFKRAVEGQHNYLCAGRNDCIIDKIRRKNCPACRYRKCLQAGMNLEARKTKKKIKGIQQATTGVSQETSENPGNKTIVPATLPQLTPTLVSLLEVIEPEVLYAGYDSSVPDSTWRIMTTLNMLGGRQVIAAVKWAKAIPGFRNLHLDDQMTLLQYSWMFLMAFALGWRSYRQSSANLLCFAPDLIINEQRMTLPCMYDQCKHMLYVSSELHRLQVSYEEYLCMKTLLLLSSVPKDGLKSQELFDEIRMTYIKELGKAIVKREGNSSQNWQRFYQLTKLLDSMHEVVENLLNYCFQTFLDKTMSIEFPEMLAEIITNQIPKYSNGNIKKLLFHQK
M4, sequence (P08173 whole entry): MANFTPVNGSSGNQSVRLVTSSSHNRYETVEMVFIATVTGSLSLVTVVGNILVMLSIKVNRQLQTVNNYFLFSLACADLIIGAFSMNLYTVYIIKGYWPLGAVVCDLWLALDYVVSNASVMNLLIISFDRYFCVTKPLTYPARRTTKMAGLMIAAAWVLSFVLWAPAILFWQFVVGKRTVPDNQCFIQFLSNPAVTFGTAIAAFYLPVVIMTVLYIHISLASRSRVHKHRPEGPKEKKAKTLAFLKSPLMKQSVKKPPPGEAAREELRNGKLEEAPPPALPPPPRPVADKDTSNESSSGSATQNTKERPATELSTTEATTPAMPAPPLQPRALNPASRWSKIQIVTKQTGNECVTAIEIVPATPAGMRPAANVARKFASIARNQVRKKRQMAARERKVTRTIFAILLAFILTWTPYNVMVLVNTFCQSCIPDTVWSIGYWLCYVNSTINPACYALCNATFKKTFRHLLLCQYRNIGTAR
5-HT2B, sequence (P41595 whole entry): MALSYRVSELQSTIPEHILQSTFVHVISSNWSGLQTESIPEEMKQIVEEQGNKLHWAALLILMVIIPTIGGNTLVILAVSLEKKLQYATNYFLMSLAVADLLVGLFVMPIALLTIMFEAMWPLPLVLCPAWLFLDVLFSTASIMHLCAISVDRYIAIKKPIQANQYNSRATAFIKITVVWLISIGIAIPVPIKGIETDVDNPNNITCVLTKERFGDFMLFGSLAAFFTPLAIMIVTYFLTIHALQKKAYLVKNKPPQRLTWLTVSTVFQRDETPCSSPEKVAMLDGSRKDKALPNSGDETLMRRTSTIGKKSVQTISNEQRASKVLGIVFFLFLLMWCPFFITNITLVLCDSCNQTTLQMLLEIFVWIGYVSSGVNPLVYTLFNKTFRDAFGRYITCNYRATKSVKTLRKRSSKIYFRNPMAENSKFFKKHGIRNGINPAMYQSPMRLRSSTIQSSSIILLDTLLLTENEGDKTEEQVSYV
CXCR2 (IL-8B), sequence (P25025 whole entry): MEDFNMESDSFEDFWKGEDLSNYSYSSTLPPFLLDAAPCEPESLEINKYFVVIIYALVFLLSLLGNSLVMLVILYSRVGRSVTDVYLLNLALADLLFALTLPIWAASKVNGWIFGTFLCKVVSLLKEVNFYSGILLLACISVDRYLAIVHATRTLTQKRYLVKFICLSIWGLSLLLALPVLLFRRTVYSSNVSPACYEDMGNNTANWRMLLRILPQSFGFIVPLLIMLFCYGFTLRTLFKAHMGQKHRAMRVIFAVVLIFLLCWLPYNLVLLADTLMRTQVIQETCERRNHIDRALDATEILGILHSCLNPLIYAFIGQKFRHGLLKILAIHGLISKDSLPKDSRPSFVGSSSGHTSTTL
Norepinephrine transporter, sequence (P23975 whole entry): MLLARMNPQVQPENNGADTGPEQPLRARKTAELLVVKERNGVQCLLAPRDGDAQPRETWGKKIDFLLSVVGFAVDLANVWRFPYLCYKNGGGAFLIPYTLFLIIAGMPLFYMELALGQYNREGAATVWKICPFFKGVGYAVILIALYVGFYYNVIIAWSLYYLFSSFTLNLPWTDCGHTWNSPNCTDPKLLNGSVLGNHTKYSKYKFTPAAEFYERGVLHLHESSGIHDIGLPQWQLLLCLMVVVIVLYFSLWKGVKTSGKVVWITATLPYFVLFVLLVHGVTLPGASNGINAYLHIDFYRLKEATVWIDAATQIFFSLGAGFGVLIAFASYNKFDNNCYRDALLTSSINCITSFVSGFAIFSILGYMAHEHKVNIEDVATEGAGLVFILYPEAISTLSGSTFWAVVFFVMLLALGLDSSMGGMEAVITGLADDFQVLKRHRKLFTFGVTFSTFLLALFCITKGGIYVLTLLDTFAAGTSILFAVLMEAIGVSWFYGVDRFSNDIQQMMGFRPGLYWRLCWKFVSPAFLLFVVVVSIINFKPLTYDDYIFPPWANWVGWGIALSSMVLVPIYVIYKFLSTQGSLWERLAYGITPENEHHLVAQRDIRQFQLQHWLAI
CCR1, sequence (P32246 whole entry): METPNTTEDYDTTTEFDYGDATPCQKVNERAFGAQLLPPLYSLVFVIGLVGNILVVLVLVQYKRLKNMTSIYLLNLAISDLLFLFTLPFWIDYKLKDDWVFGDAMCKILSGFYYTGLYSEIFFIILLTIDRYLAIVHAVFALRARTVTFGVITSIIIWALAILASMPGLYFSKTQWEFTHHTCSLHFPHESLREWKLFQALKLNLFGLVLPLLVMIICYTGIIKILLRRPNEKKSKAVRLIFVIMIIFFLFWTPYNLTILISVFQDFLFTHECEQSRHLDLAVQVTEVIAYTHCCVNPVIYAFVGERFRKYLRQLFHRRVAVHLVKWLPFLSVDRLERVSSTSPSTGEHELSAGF
T1 sequence (P23219 24-599): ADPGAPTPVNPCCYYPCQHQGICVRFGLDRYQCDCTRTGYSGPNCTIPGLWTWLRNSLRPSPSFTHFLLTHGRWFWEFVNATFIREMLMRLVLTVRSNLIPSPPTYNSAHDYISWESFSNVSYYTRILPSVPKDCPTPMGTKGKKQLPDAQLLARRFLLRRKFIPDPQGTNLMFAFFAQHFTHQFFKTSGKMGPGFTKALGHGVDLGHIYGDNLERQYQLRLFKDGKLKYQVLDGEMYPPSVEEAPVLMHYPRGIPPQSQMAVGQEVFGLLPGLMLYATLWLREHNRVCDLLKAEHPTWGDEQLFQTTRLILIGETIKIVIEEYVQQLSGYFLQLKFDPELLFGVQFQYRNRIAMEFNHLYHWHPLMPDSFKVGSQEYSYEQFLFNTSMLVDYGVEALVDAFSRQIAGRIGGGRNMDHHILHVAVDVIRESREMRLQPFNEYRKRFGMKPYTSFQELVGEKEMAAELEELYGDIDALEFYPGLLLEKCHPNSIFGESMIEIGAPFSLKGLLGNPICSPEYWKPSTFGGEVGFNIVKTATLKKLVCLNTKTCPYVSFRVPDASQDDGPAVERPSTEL
NK1, sequence (P25103 whole entry): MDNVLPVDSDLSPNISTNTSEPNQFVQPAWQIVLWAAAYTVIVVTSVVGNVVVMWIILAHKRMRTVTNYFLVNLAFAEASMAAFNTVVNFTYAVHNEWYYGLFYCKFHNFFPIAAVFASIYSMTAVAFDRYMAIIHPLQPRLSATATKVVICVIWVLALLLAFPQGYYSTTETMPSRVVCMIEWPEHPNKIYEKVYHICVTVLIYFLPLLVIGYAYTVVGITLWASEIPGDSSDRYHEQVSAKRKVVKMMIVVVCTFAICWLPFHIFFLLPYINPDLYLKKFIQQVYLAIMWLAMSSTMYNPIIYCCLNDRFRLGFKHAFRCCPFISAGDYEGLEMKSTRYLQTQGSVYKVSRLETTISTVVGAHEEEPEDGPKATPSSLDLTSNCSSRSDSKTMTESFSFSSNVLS
FP, sequence (P43088 whole entry): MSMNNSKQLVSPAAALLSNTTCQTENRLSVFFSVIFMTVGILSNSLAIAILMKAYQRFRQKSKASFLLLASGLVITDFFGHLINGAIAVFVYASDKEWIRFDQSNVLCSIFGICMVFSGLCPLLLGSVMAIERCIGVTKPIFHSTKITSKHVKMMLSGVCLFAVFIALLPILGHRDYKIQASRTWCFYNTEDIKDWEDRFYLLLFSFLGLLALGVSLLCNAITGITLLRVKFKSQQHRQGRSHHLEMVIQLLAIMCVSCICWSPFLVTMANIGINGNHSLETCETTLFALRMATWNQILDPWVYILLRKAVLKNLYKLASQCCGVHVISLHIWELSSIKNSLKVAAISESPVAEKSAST

`O=C([O-])c1ccc(C2(NC(=O)[C@H]3CC4(CCN3Cc3ccc(C(F)(F)F)cc3)CC4)CC2)cc1.[Na+]` [CR6086, Sodium (R)-4-(1-(6-(4-(trifluoromethyl)benzyl)-6-azaspiro[2.5]octane-5-carboxamido)cyclopropyl)benzoate]: the inhibition at 10 µM on MT1 (ML1A) is below 20%; on FP, below 20%; at BZD (peripheral) it was below 20%; on 5-HT5a it was below 20%; at DP1 (agonist effect, read-out: CR6086 Activity at 10µM), below 20%; at CXCR2 (IL-8B), below 20%. In addition, the inhibition at 10 µM at M4, at GR, on 5-HT2B, on NK1, at CCR1 and on COX-1 was below 20% in each case. In assay [1], the inhibition at 10 µM was below 20%. The results for the IC50 in the assay with IL-23 release and in the assay with VEGF gene expression were 608 nM and 25 nM, respectively. Also, at DP1 (antagonist effect), the “CR6086 Activity at 10µM” value is “IN (IN = < 20% displacement or inhibition (all tables))”.
